The subject of assay [1] is Phospholipase von Candida albicans. The experiment in a line: Inhibition of released exoenzymes (phospholipase) of Candida albicans blastoconidia, egg-yolk agar plate, turbidity halo. It counts as cell-based. The conditions noted are these: Candida albicans Stamm 200/175, in vitro. On the procedure: Zur Feststellung der Enzymhemmung wurde eine Suspension von Candida albicans Blastokonidien (Stamm 200/175), wobei die Keimdichte photometrisch auf eine Extinktion von 0,5 (500 nm) eingestellt war, mit Präparatelösung bzw. zur Kontrolle mit Lösungsmittellösung vermischt und zwar • a) 100 µl Präparatelösung (Suspension) • + 900 µl Keimsuspension • b) 100 µl Lösungsmittel • + 900 µl Keimsuspension Jeweils 5 µl der 30 min bei 21 ° C inkubierten Blastokonidiensuspension wurden auf eine Agarplatte (Sabourand Agar mit Zusatz von 8 % Eigelb, 1 m NaCI, 5 mM CaC12) aufgetropft.
Die so beimpfte Platte wurde 3 Tage bei 37 ° C bebrütet.
Die Auswertung erfolgte derart, daß • 1. der Durchmesser (mm) der Candida albicans-Kolonie (behandelt und unbehandelt) sowie • 2. der Gasamtdurchmesser von Kolonie und Trübungshof, welcher durch Exoenzyme verursacht wurde (behandelt und unbehandelt), bestimmt wurde.
Aus der Bestimmung des Quotienten von Präparate- und Kontrollgruppe ergab sich ein Wert, der als Maß für die Enzymaktivität anzusehen war.

Assay [2] concerns Trichophyton mentagrophytes. The experiment in a line: Percent killing of Trichophyton mentagrophytes in vitro. The format is cell-based. The conditions noted are these: nach 14 h in aqua dest., read-out: %-Abtötung von Trichophyton mentagrophytes. An excerpt: Die pilzabtötende, antimykotische Wirksamkeit der Verbindungen wurde an einigen Beispielen (s. Tabelle 3) anhand der prozentualen Abtötung von Trichophyton mentagrophytes in vitro verifiziert (Standardpräparat Rilopirox als Vergleichssubstanz).

The subject of assay [3] is Phospholipase aus Leberzellen. The settings on record: in-vitro-Test, literature (Pappu A.S. et al., Biochem. Pharmacol. 34, 521-24, 1985); cited from earlier work.

For the compound `CC(C)(C)NCC(O)(COc1ccc(OCc2ccccc2)cc1)C(C)(C)C` (centres unmarked) [1.5], the “% Hemmung der Phospholipase” value in assay [1] (Konzentration 50 μm/ml) and in assay [1] (Konzentration 100 μm/ml) was 100% each time.

Regarding `CC(C)NCC(O)(COc1ccc(Cl)cc1Cl)C(C)(C)C` (centres unmarked) [1.7, 2-t-Butyl-1-(2,4-dichlorphenoxy)-3-isopropyl-amino-2-propanol], the “% Hemmung der Phospholipase” value in assay [1] (Konzentration 10 μm/ml) stood at 20%; in assay [1] (Konzentration 100 μm/ml) it was 100%.

As for `CCCCNCC(O)(COc1ccc(C(C)(C)C)cc1)C(C)(C)C` (centres unmarked) [1.11], the “% Hemmung der Phospholipase” value in assay [1] (Konzentration 100 μm/ml) is reported as 100%.

As to `CCCCNCC(O)(COc1ccc(C(C)(C)C)cc1)c1ccc(-c2ccccc2)cc1` (centres unmarked) [1.15], the “% Hemmung der Phospholipase” value in assay [1] (Konzentration 5 μm/ml), in assay [1] (Konzentration 10 μm/ml), in assay [1] (Konzentration 50 μm/ml) and in assay [1] (Konzentration 100 μm/ml) was 100% in each case.

With `CCCCCCCCCCCCNCC(O)(COc1ccc(C(C)(C)C)cc1)c1ccc(-c2ccccc2)cc1` (centres unmarked) [1.17], the “% Hemmung der Phospholipase” value in assay [1] (Konzentration 5 μm/ml), in assay [1] (Konzentration 10 μm/ml), in assay [1] (Konzentration 50 μm/ml) and in assay [1] (Konzentration 100 μm/ml) was 100% in each case. Also, the killing at 40 µg/mL in assay [2] was determined as 97.8%. The killing at 80 µg/mL in assay [2] was 100%.

As for `CCCCCCCOc1ccc(OCC(O)(CNCCCC)C(C)(C)C)cc1` (centres unmarked) [1.18], the “% Hemmung der Phospholipase” value in assay [1] (Konzentration 5 μm/ml), in assay [1] (Konzentration 10 μm/ml), in assay [1] (Konzentration 50 μm/ml) and in assay [1] (Konzentration 100 μm/ml) was 100% each time.

`CCCCCCCOc1ccc(OCC(O)(CNCc2ccccc2)C(C)(C)C)cc1` (centres unmarked) [1.19, 3-N-Benzylamino-2-t-butyl-1-(4-heptyloxy-phenyl-oxy)-2-propanol]: the “% Hemmung der Phospholipase” value in assay [1] (Konzentration 5 μm/ml), in assay [1] (Konzentration 10 μm/ml), in assay [1] (Konzentration 50 μm/ml) and in assay [1] (Konzentration 100 μm/ml) was 100% in each case.

`CCCCCCCOc1ccc(OCC(O)(CNCc2ccc(OC)c(OC)c2)C(C)(C)C)cc1` (centres unmarked) [1.21]: the “% Hemmung der Phospholipase” value in assay [1] (Konzentration 10 μm/ml), in assay [1] (Konzentration 50 μm/ml) and in assay [1] (Konzentration 100 μm/ml) was 100% each time.

For `CCCCCCCOc1ccc(OCC(O)(CNCCC(c2ccccc2)c2ccccc2)C(C)(C)C)cc1` (centres unmarked) [1.22], the results for the “% Hemmung der Phospholipase” value in assay [1] (Konzentration 10 μm/ml), in assay [1] (Konzentration 50 μm/ml) and in assay [1] (Konzentration 100 μm/ml) were 10%, 100% and 100%, respectively.

Turning to `CCCCCCCCCCCCNCC(O)(COc1ccc(OCCCCCCC)cc1)C(C)(C)C` (centres unmarked) [1.23], the “% Hemmung der Phospholipase” value in assay [1] (Konzentration 5 μm/ml), in assay [1] (Konzentration 10 μm/ml), in assay [1] (Konzentration 50 μm/ml) and in assay [1] (Konzentration 100 μm/ml) was 100% throughout.

On to `CCCCCCCOc1ccc(OCC(O)(CNC(C)C)C(C)(C)C)cc1` (centres unmarked) [1.24], for which the “% Hemmung der Phospholipase” value in assay [1] (Konzentration 5 μm/ml), in assay [1] (Konzentration 10 μm/ml), in assay [1] (Konzentration 50 μm/ml) and in assay [1] (Konzentration 100 μm/ml) was 100% throughout.

As for `CC1(C)CC(NCC(O)(COc2ccc(Oc3ccccc3)cc2)C(C)(C)C)CC(C)(C)N1` (centres unmarked) [1.31], the “% Hemmung der Phospholipase” value is on record as 7.7% in assay [1] (Konzentration 5 μm/ml), 100% in assay [1] (Konzentration 10 μm/ml), 100% in assay [1] (Konzentration 50 μm/ml) and 100% in assay [1] (Konzentration 100 μm/ml).

Take `CCCCCCCCCCCCNCC(O)(COc1ccc(Oc2ccccc2)cc1)C(C)(C)C` (centres unmarked) [1.34]: the “% Hemmung der Phospholipase” value in assay [1] (Konzentration 1 μm/ml) was found to be 6.3%; in assay [1] (Konzentration 5 μm/ml), 33.3%; in assay [1] (Konzentration 10 μm/ml), 100%; in assay [1] (Konzentration 50 μm/ml), 100%; in assay [1] (Konzentration 100 μm/ml) it was 100%.

On to `CC(C)(C)CC(C)(C)c1ccc(OCC(O)(CNCc2ccc(Cl)cc2Cl)C(C)(C)C)cc1` (centres unmarked) [1.48], for which the “% Hemmung der Phospholipase” value was found to be 14.3% in assay [1] (Konzentration 1 μm/ml); 100% in assay [1] (Konzentration 5 μm/ml); 100% in assay [1] (Konzentration 10 μm/ml); 100% in assay [1] (Konzentration 50 μm/ml); 100% in assay [1] (Konzentration 100 μm/ml).

For the compound `CCCCCCCCCCCCNCC(O)(COc1ccc(OCCCCCCC)cc1)c1ccccc1` (centres unmarked) [1.53], the “% Hemmung der Phospholipase” value in assay [1] (Konzentration 5 μm/ml), in assay [1] (Konzentration 10 μm/ml), in assay [1] (Konzentration 50 μm/ml) and in assay [1] (Konzentration 100 μm/ml) was 100% each time.

As to `CC(C)NCC(O)COc1cccc2ccccc12` (centres unmarked) [Propranolol, reference compound], the “% Hemmung der Phospholipase” value in assay [1] (Konzentration 100 μm/ml) was determined as 30%. Also, the “Hemmwirkung gegenüber Phospholipase aus Leberzellen” value in assay [3] is reported as “wirksamste Substanz”.

Turning to `Cc1cc(COc2ccc(Oc3ccc(Cl)cc3)cc2)n(O)c(=O)c1` [Rilopirox, reference compound], in assay [2], the killing at 40 µg/mL was 100% and the killing at 80 µg/mL is 100%.

The values are drawn from EP0533056A2, “Substituted aminopropanes, process for their preparation and their use as antimycotic agents” (HOECHST AKTIENGESELLSCHAFT, priority 1991, dated 1993).
